Test results: patent publication US7449465B2, “Triazolopyrimidine derivatives as glycogen synthase kinase 3 inhibitors” (Janssen Pharmaceutica, N.V., priority 2003, dated 2008)
Counter-ions that a name gives are not always drawn.

What was measured:
[1] = molecular target: GSK3β (Homo sapiens, UniProt P49841); assay: GSK3beta assay (SPA, biotinylated phosphorylated CREB peptide, ATP-P33); format: biochemical; conditions: ranges of pIC50 (−log IC50 (M)); 1 μM ATP, room temperature, one hour; read-out: GSK3b pIC50 (converted)
GSK3β, sequence (P49841 whole entry, species assumed): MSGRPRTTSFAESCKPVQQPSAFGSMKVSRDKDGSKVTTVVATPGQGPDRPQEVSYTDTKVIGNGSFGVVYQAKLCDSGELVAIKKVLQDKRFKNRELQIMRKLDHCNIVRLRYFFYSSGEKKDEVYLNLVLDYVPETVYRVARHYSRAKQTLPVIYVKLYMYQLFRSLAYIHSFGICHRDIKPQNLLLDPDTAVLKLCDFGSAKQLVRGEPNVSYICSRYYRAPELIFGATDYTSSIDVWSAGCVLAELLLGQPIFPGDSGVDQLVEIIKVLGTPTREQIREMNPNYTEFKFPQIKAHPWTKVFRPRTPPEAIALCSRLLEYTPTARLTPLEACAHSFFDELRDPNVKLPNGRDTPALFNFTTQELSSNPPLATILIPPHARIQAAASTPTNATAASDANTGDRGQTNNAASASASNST
Method: (§1) GSK3beta assays were performed at room temperature in a 100 μl reaction volume of 25 mM Tris (pH 7.4) containing 10 mM MgCl2.6H2O, 1 mM DTI, 0.1 mgiml BSA, 5% glycerol and containing 5.7 ng/μl GSK3β, 5 μM biotinylated phosphorylated CREB peptide, 1 μM ATP, 0.85 μCi/ml ATP-P^33 and a suitable amount of a test compound of formula (I). After one hour, the reaction was terminated by adding 70 μl of Stop mix (0.1 mM ATP, 5 mg/ml streptavidin coated PVT SPA bead pH 11.0). The beads to which the phosphorylated CREB peptide is attached were allowed to settle overnight and the radioactivity of the beads was counted in a microtiterplate scintillation counter and compared with the results obtained in a control experiment (without the presence of a test compound) in order to determine the percentage of GSK3β inhibition. The IC50 value, i.e. the concentration (M) of the test compound at which 50% of GSK3β is inhibited, was calculated from the dose response curve obtained by performing the above-described GSK3β assay in the presence of different amounts of the test compound.

[2] = molecular target: GSK3alpha (Homo sapiens, UniProt P49840); assay: GSK3alpha assay (same as the GSK3beta assay, 0.25 ng/μl GSK3alpha); format: biochemical; conditions: ranges of pIC50 (−log IC50 (M)), 1 μM ATP, read-out: GSK3a pIC50 (converted)
GSK3alpha, sequence (P49840 whole entry, species assumed): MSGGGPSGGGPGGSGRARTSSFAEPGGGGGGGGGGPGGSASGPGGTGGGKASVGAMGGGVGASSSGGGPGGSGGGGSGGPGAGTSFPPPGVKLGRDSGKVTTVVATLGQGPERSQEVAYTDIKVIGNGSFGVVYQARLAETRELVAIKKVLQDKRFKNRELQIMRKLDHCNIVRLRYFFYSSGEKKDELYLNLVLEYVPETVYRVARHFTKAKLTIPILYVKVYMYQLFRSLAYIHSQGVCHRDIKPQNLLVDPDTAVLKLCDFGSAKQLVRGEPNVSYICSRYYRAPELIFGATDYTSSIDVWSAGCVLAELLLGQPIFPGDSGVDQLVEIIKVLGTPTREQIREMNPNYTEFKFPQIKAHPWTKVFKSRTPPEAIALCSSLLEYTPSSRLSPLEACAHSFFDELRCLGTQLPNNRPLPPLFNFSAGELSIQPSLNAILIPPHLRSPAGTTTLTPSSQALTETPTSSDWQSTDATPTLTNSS
Method: as §1
The GSK3alpha assay was performed in the same way as described above for the GSK3beta assay except for the concentration of GSK3alpha which is 0.25 ng/μl.

Row | melting point [°C] | IC50 [1] [M] | IC50 [2] [M] | Structure (SMILES)
1 | > 260 | < 1e-08 | < 1e-08 | Fc1cccc(-n2nnc3cnc(Nc4cccc(-c5cnccn5)c4)nc32)c1 [Compound 2]
2 | > 250 |  |  | NCc1cccc(-n2nnc3cnc(Nc4cccc(-c5cnco5)c4)nc32)c1 (as salt: HCl) [Compound 114]
3 | > 260 |  |  | Brc1cccc(-n2nnc3cnc(Nc4cccc(C5=NCNC5)c4)nc32)c1 (as salt: HCl) [Compound 43]
4 |  | 1e-08 to 1e-07 | < 1e-08 | Brc1cccc(-n2nnc3cnc(Nc4cccc(-c5ccn[nH]5)c4)nc32)c1 [Compound 44]
5 |  | < 1e-08 | < 1e-08 | Cn1nnnc1-c1cccc(Nc2ncc3nnn(-c4cccc(F)c4)c3n2)c1 [Compound 28]
6 |  | 1e-08 to 1e-07 | < 1e-08 | Brc1cccc(-n2nnc3cnc(Nc4ccc(-c5cc[nH]n5)cc4)nc32)c1 [Compound 50]
7 |  | < 1e-08 | < 1e-08 | Fc1cccc(-n2nnc3cnc(Nc4cccc(-c5nnn[nH]5)c4)nc32)c1 [Compound 27]
8 |  | 1e-08 | < 1e-08 | Cn1nnnc1-c1cccc(Nc2ncc3nnn(-c4cccc(S(N)(=O)=O)c4)c3n2)c1 [Compound 146]
9 |  | < 1e-08 | < 1e-08 | Cn1ccnc1-c1cccc(Nc2ncc3nnn(-c4cccc(F)c4)c3n2)c1 [Compound 24]
10 |  | 1e-08 | 1e-08 to 1e-07 | OCCc1cccc(-n2nnc3cnc(Nc4cccc(-c5nnn[nH]5)c4)nc32)c1 [Compound 75]
11 |  | < 1e-08 | < 1e-08 | Nc1nccc(-c2cccc(Nc3ncc4nnn(-c5cccc(F)c5)c4n3)c2)n1 [Compound 33]
12 |  | < 1e-08 | < 1e-08 | NC(=O)Cc1cccc(-n2nnc3cnc(Nc4cccc(-c5cnco5)c4)nc32)c1 [Compound 95]
13 |  | 1e-08 to 1e-07 | < 1e-08 | Cn1nnc(-c2ccc(Nc3ncc4nnn(-c5cccc(Br)c5)c4n3)cc2)n1 [Compound 53]
14 |  | < 1e-08 | < 1e-08 | Brc1cccc(-n2nnc3cnc(Nc4cccc(-c5cncnc5)c4)nc32)c1 [Compound 47]
15 |  | < 1e-08 | < 1e-08 | COc1cccc(-n2nnc3cnc(Nc4cccc(-c5nnnn5C)c4)nc32)c1 [Compound 128]
16 |  | < 1e-08 | < 1e-08 | NS(=O)(=O)c1cccc(-n2nnc3cnc(Nc4cccc(-c5cnco5)c4)nc32)c1 [Compound 145]
17 |  | 1e-08 to 1e-07 | < 1e-08 | COc1cccc(-n2nnc3cnc(Nc4cccc(-c5nnn[nH]5)c4)nc32)c1 [Compound 127]
18 |  | < 1e-08 | < 1e-08 | N#CNc1nccc(-c2cccc(Nc3ncc4nnn(-c5cccc(F)c5)c4n3)c2)n1 [Compound 35]
19 |  | < 1e-08 | < 1e-08 | Brc1cccc(-n2nnc3cnc(Nc4ccc(-c5nnn[nH]5)cc4)nc32)c1 [Compound 52]
20 |  | < 1e-08 | < 1e-08 | NCc1cccc(-n2nnc3cnc(Nc4cccc(-c5cnco5)c4)nc32)c1 [Compound 114]
21 |  | < 1e-08 | < 1e-08 | COc1cccc(-n2nnc3cnc(Nc4cccc(-c5ccnc(N)n5)c4)nc32)c1 [Compound 19]
22 |  | < 1e-08 | < 1e-08 | Cn1cnnc1-c1cccc(Nc2ncc3nnn(-c4cccc(F)c4)c3n2)c1 [Compound 26]
23 |  | < 1e-08 | < 1e-08 | COc1cccc(-n2nnc3cnc(Nc4cccc(-c5cnco5)c4)nc32)c1 [Compound 16]
24 |  | 1e-08 to 1e-07 | < 1e-08 | O=c1[nH]nc(-c2cccc(Nc3ncc4nnn(-c5cccc(Br)c5)c4n3)c2)[nH]1 [Compound 46]

The remaining lines, values behind:

Row | Structure (SMILES) | melting point [°C] | IC50 [1] [M] | IC50 [2] [M]
25 | CN1CCN(c2cccc(Nc3ncc4nnn(-c5cccc(F)c5)c4n3)c2)CC1 (as salt: HCl) [Compound 36] | > 250 |  | 
26 | O=[N+]([O-])c1cc(Nc2ncc3nnn(C4CCCCC4)c3n2)ccc1N1CCOCC1 [Compound 5] | 161.9 | 1e-08 to 1e-07 | 
27 | CCC(C)n1ncn(-c2ccc(Nc3ncc4nnn(-c5cccc(F)c5)c4n3)cc2)c1=O (centres unmarked) [Compound 41] |  | 1e-08 to 1e-07 | 1e-08 to 1e-07
28 | Fc1cccc(-n2nnc3cnc(Nc4ccc(OCCN5CCOCC5)cc4)nc32)c1 [Compound 141] |  | 1e-08 to 1e-07 | < 1e-08
29 | Cn1nnnc1-c1cccc(Nc2ncc3nnn(-c4ccccc4)c3n2)c1 [Compound 74] |  | < 1e-08 | < 1e-08
30 | Cn1nnnc1-c1cccc(Nc2ncc3nnn(-c4cccc(CCO)c4)c3n2)c1 [Compound 76] |  | < 1e-08 | < 1e-08
31 | CN1CCN(c2cccc(Nc3ncc4nnn(-c5cccc(F)c5)c4n3)c2)CC1 [Compound 36] |  | < 1e-08 | < 1e-08
32 | Fc1cccc(-n2nnc3cnc(Nc4ccc(-c5nn[nH]n5)cc4)nc32)c1 [Compound 138] |  | < 1e-08 | < 1e-08
33 | COCCOCc1cccc(-n2nnc3cnc(Nc4ccc(CN5CCC(O)CC5)cc4)nc32)c1 [Compound 110] |  | 1e-08 to 1e-07 | 1e-08 to 1e-07
34 | COCCOCc1cccc(-n2nnc3cnc(Nc4ccc(N5CCN(C)CC5)cc4)nc32)c1 [Compound 108] |  | < 1e-08 | 1e-08 to 1e-07
35 | COCc1cccc(-n2nnc3cnc(Nc4ccc(C(=O)NCCN5CCOCC5)cc4)nc32)c1 [Compound 104] |  | < 1e-08 | < 1e-08
36 | CC(=O)NCc1cccc(-n2nnc3cnc(Nc4cccc(-c5ccnc(N)n5)c4)nc32)c1 [Compound 117] |  | > 1e-09 | < 1e-08
37 | CN1CCN(Cc2ccc(Nc3ncc4nnn(-c5cccc(CCO)c5)c4n3)cc2)CC1 [Compound 78] |  | < 1e-08 | < 1e-08
38 | COCc1cccc(-n2nnc3cnc(Nc4ccc(CN5CCC(O)CC5)cc4)nc32)c1 [Compound 102] |  | 1e-08 to 1e-07 | 1e-08 to 1e-07
39 | CC(=O)NCc1cccc(-n2nnc3cnc(Nc4cccc(-c5nnnn5C)c4)nc32)c1 [Compound 116] |  | < 1e-08 | < 1e-08
40 | COCCOc1cccc(-n2nnc3cnc(Nc4ccc(N5CCN(C)CC5)cc4)nc32)c1 [Compound 130] |  | 1e-08 to 1e-07 | 1e-08 to 1e-07
41 | Fc1cccc(-n2nnc3cnc(Nc4ccc(-n5cncn5)cc4)nc32)c1 [Compound 40] |  | < 1e-08 | < 1e-08
42 | CN1CCN(CCOc2ccc(Nc3ncc4nnn(-c5cccc(CC#N)c5)c4n3)cc2)CC1 [Compound 93] |  | 1e-08 to 1e-07 | 1e-08 to 1e-07
43 | CN1CCN(Cc2ccc(Nc3ncc4nnn(-c5cccc(CC#N)c5)c4n3)cc2)CC1 [Compound 89] |  | 1e-08 to 1e-07 | < 1e-08

Row | Structure (SMILES) | melting point [°C] | IC50 [1] [M] | IC50 [2] [M]
44 | c1ccc(-n2nnc3cnc(Nc4cccc(-c5cnco5)c4)nc32)cc1 [Compound 73] |  | < 1e-08 | < 1e-08
45 | O=C(NCCN1CCOCC1)c1ccc(Nc2ncc3nnn(-c4cccc(CCO)c4)c3n2)cc1 [Compound 81] |  | < 1e-08 | < 1e-08
46 | CN1CCN(C(=O)c2ccc(Nc3ncc4nnn(-c5cccc(CC#N)c5)c4n3)cc2)CC1 [Compound 91] |  | < 1e-08 | < 1e-08
47 | COCc1cccc(-n2nnc3cnc(Nc4ccc(OCCN5CCN(C)CC5)cc4)nc32)c1 [Compound 105] |  | 1e-08 to 1e-07 | 1e-08 to 1e-07
48 | CN1CCN(c2ccc(Nc3ncc4nnn(C5CCCCC5)c4n3)cc2)CC1 [Compound 4] | 167 |  | 
49 | CN1CCN(CCCOc2ccc(Nc3ncc4nnn(-c5cccc(F)c5)c4n3)cc2)CC1 [Compound 143] |  | 1e-08 to 1e-07 | < 1e-08
50 | Cn1nnc(-c2ccc(Nc3ncc4nnn(-c5cccc(F)c5)c4n3)cc2)n1 [Compound 42] |  | < 1e-08 | 1e-08 to 1e-07
51 | CN1CCN(CCOc2ccc(Nc3ncc4nnn(-c5cccc(CCO)c5)c4n3)cc2)CC1 [Compound 82] |  | 1e-08 | < 1e-08
52 | OCCc1cccc(-n2nnc3cnc(Nc4ccc(CN5CCC(O)CC5)cc4)nc32)c1 [Compound 79] |  | < 1e-08 | < 1e-08
53 | Fc1cccc(-n2nnc3cnc(Nc4ccc(OCCCN5CCOCC5)cc4)nc32)c1 [Compound 144] |  | 1e-08 to 1e-07 | < 1e-08
54 | CC(C)CC(=O)NCc1cccc(-n2nnc3cnc(Nc4cccc(-c5ccnc(N)n5)c4)nc32)c1 [Compound 121] |  | < 1e-08 | 1e-08
55 | Fc1cccc(-n2nnc3cnc(Nc4ccc(-c5cnco5)cc4)nc32)c1 [Compound 38] |  | 1e-08 to 1e-07 | 1e-08 to 1e-07
56 | COCCOc1cccc(-n2nnc3cnc(Nc4ccc(CN5CCN(C)CC5)cc4)nc32)c1 [Compound 131] |  | 1e-08 to 1e-07 | 1e-08 to 1e-07
57 | COCCOc1cccc(-n2nnc3cnc(Nc4ccc(OCCCN5CCN(C)CC5)cc4)nc32)c1 [Compound 135] |  | 1e-08 to 1e-07 | 1e-08 to 1e-07
58 | COCCOc1cccc(-n2nnc3cnc(Nc4ccc(C(=O)N5CCN(C)CC5)cc4)nc32)c1 [Compound 133] |  | 1e-08 to 1e-07 | < 1e-08
59 | Brc1cccc(-n2nnc3cnc(Nc4ccc(Nc5ncccn5)cc4)nc32)c1 [Compound 54] |  | 1e-08 to 1e-07 | < 1e-08
60 | COCCOCc1cccc(-n2nnc3cnc(Nc4ccc(CN5CCN(C)CC5)cc4)nc32)c1 [Compound 109] |  | 1e-08 to 1e-07 | 1e-08 to 1e-07
61 | COCC(=O)NCc1cccc(-n2nnc3cnc(Nc4ccc(-c5cnco5)cc4)nc32)c1 [Compound 123] |  | < 1e-08 | < 1e-08
